These results are taken from publication PMC5095144, “Purification and characterization of an extracellular β‐glucosidase from Sporothrix schenckii” (FEBS Open Bio, 2016).

The subject of assay [1] is T1, extracellular β-glucosidase.
T1 construct: gene beta-D-glucoside glucohydrolase; native, secreted, purified from culture filtrate of cellulose-grown mycelial form
Briefly: fluorometric 4-MU release, Michaelis-Menten nonlinear regression. The assay is classed as biochemical, Sporothrix schenckii. Particulars: 100 mM sodium citrate pH 5, 45 °C; substrate 0–15 μM.

Assay [2] has the same test system. Briefly: p-nitrophenol release at […] nm, Michaelis-Menten nonlinear regression. The assay is classed as biochemical, Sporothrix schenckii. Particulars: 100 mM sodium citrate pH 5, 45 °C; substrate 0–17.5 mM (below the fitted Km).
Assay [3] deals with extracellular β-glucosidase from Sporothrix schenckii (Sporothrix schenckii). The assay can be described thus: SEC; Sephacryl S200-HR column (1 x 119 cm), 50 mM phosphate buffer pH 7, 4 °C, calibrated with standard proteins; native mass compared with the subunit mass from 7% SDS/PAGE. In general terms: In gel filtration, larger molecules generally elute earlier.
For assay [4] the target is unchanged. The assay can be described thus: zymogram after SDS/PAGE (semidenaturing) and native PAGE; 7% gels run at 4 °C, sample incubated 30 min at 37 °C in sample buffer; activity shown with 4-MUG; CFCF after 3 days on cellulose.

Broadly, the Km is the concentration of substrate that gives half-maximal velocity. Consider `Cc1cc(=O)oc2cc(O[C@@H]3O[C@H](CO)[C@@H](O)[C@H](O)[C@H]3O)ccc12` [4-methylumbelliferyl β-D-glucopyranoside], for which, in assay [1], the Michaelis constant (Km) worked out at 0.012 ± 0.001 mM.
As to `O=[N+]([O-])c1ccc(O[C@@H]2O[C@H](CO)[C@@H](O)[C@H](O)[C@H]2O)cc1` [p-nitrophenyl β-D-glucopyranoside], the Michaelis-Menten constant (Km) in assay [2] was determined as 44.1 ± 6.11 mM.
A word on the stoichiometry N: it is a count of units in the complex or per binding partner. On to “extracellular β-glucosidase from Sporothrix schenckii (enzyme)”, for which the stoichiometry N in assay [3] and in assay [4] was 2 throughout.
